Literature values as cited in patent publication US12285410B2, “Combination comprising HDAC inhibitor and CD137 agonist for cancer therapy” (4SC AG, priority 2018, dated 2025).

Tests used:
[1] = tested on: different types of blood cancer; conditions: 24 heavily pre-treated patients

Row | Compound | complete remission (one patient), duration [1] [months] | disease control, share of patients [1] [%] | long-term stabilization, share of patients [1] [%] | partial responder (one patient), duration [1] [months] | tolerability [1] | immunologic and pharmacodynamic activity (at 0.1 mg/kg every 3 weeks) | tolerability (at 0.1 mg/kg every 3 weeks) | treatment-related AE: fatigue (at 0.1 mg/kg every 3 weeks) [%] | treatment-related AE: nausea (at 0.1 mg/kg every 3 weeks) [%] | maximum tolerated dose (every 3 weeks) [mg/kg]
1 | Cn1cc(-c2ccc(S(=O)(=O)n3ccc(/C=C/C(=O)Nc4ccccc4N)c3)cc2)cn1 [Compound 4SC-202, (E)-N-(2-aminophenyl)-3-(1-((4-(1-methyl-1H-pyrazol-4-yl)phenyl)sulfonyl)-1H-pyrrol-3-yl)acrylamide] | 28 | 83 | 50 | 8 | well tolerated with few and/or manageable adverse events |  |  |  |  | 
2 | Urelumab |  |  |  |  |  | immunologic and pharmacodynamic activity demonstrated by the induction of IFN-inducible genes and cytokines | relatively well tolerated | 16 | 13 | 0.1
